According to US12527774B2, “Estrogen-related receptor alpha modulators” (LEAD PHARMA HOLDING B.V., priority 2019, dated 2026):

Target: ERRα ligand binding domain (ERRα-LBD) (Homo sapiens (Human), UniProt P11474)
Test: ERRα AlphaScreen Assay
Type: biochemical
Details: disruption of binding of ERRα-LBD protein to biotin-PGC1α-3 co-activator peptide
Excerpt: This assay was based on the knowledge that nuclear receptors interact with cofactors in a ligand dependent matter. The sites of interaction have been mapped to LXXLL motifs that are present in the co-activator sequences. Short peptide sequences that contain the LXXLL motif mimic the behavior of full length co-activators.
The ERRα AlphaScreen Assay described here relies on the interaction of the co-activator peptide with purified bacterial-expressed ERRα ligand binding domain (ERRα-LBD); upon ligand binding the ERRα protein can undergo a conformational change resulting in a loss of co-activator binding.
Compounds of the present invention were tested for their ability to disrupt binding of ERRα-LBD protein to co-activator peptide using AlphaScreen® Technology (Perkin Elmer). ERRα-LBD protein was expressed in E. coli as a 6×His Small Ubiquitin-like Modifier (SUMO) fusion. Bacterial expressed 6His-SUMO-ERRα-LBD protein was purified using affinity chromatography. All experiments were performed at room temperature in 384-well white non-binding plates (Greiner) using 50 mM Tris-HCl pH 7.5, 100 mM NaCl, 0,1% Pluronic F-127, 0.05% BSA and 5 mM TCEP as the buffer. Final DMSO concentration was 1% in the assay. Compounds were assayed in triplicate and: incubated with 0.81 nM ERRα-LBD protein and 10 μg/mL streptavidin donor beads and 10 μg/mL Ni-chelate acceptor beads for 1 hour at room temperature; followed by a 2-hour incubation with 15 nM biotin-PGC1α-3 peptide (QRRPCSELLKYLTTNDDPP) corresponding to amino acids 202 to 220.
The AlphaScreen signal was measured using an Envision Xcite plate reader (Perkin Elmer). Data was normalized, and curve fitting analysis was performed in GraphPad Prism 7 using a four-parameter dose-response fit.
As multiple IC50 values were annotated for the same compound-protein pair, a mean pIC50 for each compound was determined.

ERRα ligand binding domain (ERRα-LBD), sequence (P11474 193-421): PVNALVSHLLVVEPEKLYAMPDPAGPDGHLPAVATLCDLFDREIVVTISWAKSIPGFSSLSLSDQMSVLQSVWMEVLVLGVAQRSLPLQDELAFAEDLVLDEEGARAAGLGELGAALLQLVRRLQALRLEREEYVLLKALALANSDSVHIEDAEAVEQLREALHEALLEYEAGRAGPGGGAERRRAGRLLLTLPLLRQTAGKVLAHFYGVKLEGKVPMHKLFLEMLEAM

mean pIC50 | SMILES
≥ 8 | COc1cc(C2CC(=O)Nc3n[nH]cc32)ccc1OCc1ccccc1I (centres unmarked) [Example 23, 4-{4-[(2-iodophenyl)methoxy]-3-methoxyphenyl}-2H,4H,5H,6H, 7H-pyrazolo[3,4-b]pyridin-6-one]
≥ 8 | COc1cc(C2CC(=O)Nc3n[nH]cc32)ccc1COc1ccc(C)cc1C (single isomer, unassigned; (-)) [Example 220, (−)-4-{4-[(2,4-dimethylphenoxy)methyl]-3-methoxyphenyl}-2H,4H,5H,6H,7H-pyrazolo[3,4-b]pyridin-6-one]
≥ 8 | COc1cc(C2CC(=O)Nc3n[nH]cc32)ccc1OCc1ccc(C(C)=O)cc1C(F)(F)F (centres unmarked) [Example 41, 4-(4-{[4-acetyl-2-(trifluoromethyl)phenyl]methoxy}-3-methoxyphenyl)-2H,4H,5H,6H, 7H-pyrazolo[3,4-b]pyridin-6-one]
≥ 8 | CNc1ccc(COc2ccc(C3CC(=O)Nc4n[nH]cc43)cc2OC)c(C(F)(F)F)c1 (centres unmarked) [Example 141, 4-(3-methoxy-4-{[4-(methylamino)-2-(trifluoromethyl)phenyl]methoxy}phenyl)-2H,4H,5H,6H,7H-pyrazolo[3,4-b]pyridin-6-one]

Continued, molecule first:

SMILES | mean pIC50
COc1cc(-c2cc(=O)[nH]c3n[nH]cc23)ccc1OCc1ccccc1OC(F)F [Example 180, 4-(4-{[2-(difluoromethoxy)phenyl]methoxy}-3-methoxyphenyl)-2H,6H, 7H-pyrazolo[3,4-b]pyridin-6-one] | ≥ 8
COc1cc(-c2cc(=O)[nH]c3n[nH]cc23)ccc1OCc1ccc(N)cc1C(F)(F)F [Example 173, 4-(4-{[4-amino-2-(trifluoromethyl)phenyl]methoxy}-3-methoxyphenyl)-2H,6H,7H-pyrazolo[3,4-b]pyridin-6-one] | ≥ 8

Same assay, conditions: disruption of binding of ERRα-LBD protein to biotin-PGC1α-3 co-activator peptide; read-out: mean pIC50 (converted)

IC50 | SMILES
10 to 100 nM | COc1cc(C2CC(=O)Nc3n[nH]cc32)ccc1OCc1ccccc1Cl (centres unmarked) [Example 2, 4-{4-[(2-chlorophenyl)methoxy]-3-methoxyphenyl}-2H,4H,5H,6H,7H-pyrazolo[3,4-b]pyridin-6-one]
100 to 1000 nM | COc1cc(C2CC(=O)Nc3n[nH]cc32)ccc1OCc1cccc2cccnc12 (centres unmarked) [Example 47, 4-{3-methoxy-4-[(quinolin-8-yl)methoxy]phenyl}-2H,4H,5H,6H, 7H-pyrazolo[3,4-b]pyridin-6-one]
10 to 100 nM | COc1cc(C2CC(=O)Nc3n[nH]cc32)ccc1OCc1cc2c(cc1Br)OCO2 (centres unmarked) [Example 43, 4-{4-[(6-bromo-2H-1,3-benzodioxol-5-yl)methoxy]-3-methoxyphenyl}-2H,4H,5H,6H, 7H-pyrazolo[3,4-b]pyridin-6-one]
100 to 1000 nM | COc1cc(C2CC(=O)Nc3n[nH]cc32)ccc1OCc1ccc(S(C)(=O)=O)cc1C(F)(F)F (centres unmarked) [Example 37, 4-(4-{[4-methanesulfonyl-2-(trifluoromethyl)phenyl]methoxy}-3-methoxyphenyl)-2H,4H,5H,6H,7H-pyrazolo[3,4-b]pyridin-6-one]
10 to 100 nM | COc1cc(C2CC(=O)Nc3n[nH]cc32)ccc1OCc1ccc(N)cc1C(F)(F)F (single isomer, unassigned; (+)) [Example 203, (+)-4-(4-{[4-amino-2-(trifluoromethyl)phenyl]methoxy}-3-methoxyphenyl)-2H,4H,5H,6H,7H-pyrazolo[3,4-b]pyridin-6-one]
10 to 100 nM | COc1cc(C2CC(=O)Nc3n[nH]cc32)ccc1OCc1ccc(O)cc1C(F)(F)F (single isomer, unassigned; (+)) [Example 209, (+)-4-(4-{[4-hydroxy-2-(trifluoromethyl)phenyl]methoxy}-3-methoxyphenyl)-2H,4H,5H,6H,7H-pyrazolo[3,4-b]pyridin-6-one]
10 to 100 nM | COc1cc(C2CC(=O)Nc3n[nH]cc32)ccc1OCc1ccc(C(C)(C)CO)cc1C(F)(F)F (centres unmarked) [Example 152, 4-(4-{[4-(1-hydroxy-2-methylpropan-2-yl)-2-(trifluoromethyl)phenyl]methoxy}-3-methoxyphenyl)-2H,4H,5H,6H, 7H-pyrazolo[3,4-b]pyridin-6-one]
10 to 100 nM | COc1ccc(C(F)(F)F)c(COc2ccc(C3CC(=O)Nc4n[nH]cc43)cc2OC)c1 (centres unmarked) [Example 35, 4-(3-methoxy-4-{[5-methoxy-2-(trifluoromethyl)phenyl]methoxy}phenyl)-2H,4H,5H,6H,7H-pyrazolo[3,4-b]pyridin-6-one]
100 to 1000 nM | COc1cc(C2CC(=O)Nc3n[nH]cc32)ccc1OCc1cc(Cl)cc(Cl)c1Cl (centres unmarked) [Example 31, 4-{3-methoxy-4-[(2,3,5-trichlorophenyl)methoxy]phenyl}-2H,4H,5H,6H,7H-pyrazolo[3,4-b]pyridin-6-one]
100 to 1000 nM | COc1ccc([N+](=O)[O-])cc1COc1ccc(C2CC(=O)Nc3n[nH]cc32)cc1OC (centres unmarked) [Example 25, 4-{3-methoxy-4-[(2-methoxy-5-nitrophenyl)methoxy]phenyl}-2H,4H,5H,6H,7H-pyrazolo[3,4-b]pyridin-6-one]
100 to 1000 nM | CCCCOC(=O)c1ccccc1COc1ccc(C2CC(=O)Nc3n[nH]cc32)cc1OC (centres unmarked) [Example 126, butyl 2-(2-methoxy-4-{6-oxo-2H,4H,5H,6H,7H-pyrazolo[3,4-b]pyridin-4-yl}phenoxymethyl)benzoate]
100 to 1000 nM | CCOC(=O)c1ccccc1COc1ccc(C2CC(=O)Nc3n[nH]cc32)cc1OC (centres unmarked) [Example 48, ethyl 2-[(2-methoxy-4-{6-oxo-2H,4H,5H, 6H,7H-pyrazolo[3,4-b]pyridin-4-yl}phenoxy)methyl]benzoate]
10 to 100 nM | CCc1cc(C2CC(=O)Nc3n[nH]cc32)ccc1OCc1ccccc1C(F)(F)F (centres unmarked) [Example 71, 4-(3-ethyl-4-{[2-(trifluoromethyl)phenyl]methoxy}phenyl)-2H,4H,5H,6H,7H-pyrazolo[3,4-b]pyridin-6-one]

More lines, now with the values behind:

SMILES | IC50
COc1cc(C2CC(=O)Nc3n[nH]cc32)ccc1COc1ccc(C(F)(F)F)cc1C(F)F (single isomer, unassigned; (+)) [Example 215, (+)-4-(4-{[2-(difluoromethyl)-4-(trifluoromethyl)phenoxy]methyl}-3-methoxyphenyl)-2H,4H,5H,6H,7H-pyrazolo[3,4-b]pyridin-6-one] | 100 to 1000 nM
O=C1CC(c2ccc(OCc3ccccc3C(F)(F)F)cc2)c2c[nH]nc2N1 (centres unmarked) [Example 59, 4-(4-{[2-(trifluoromethyl)phenyl]methoxy}phenyl)-2H,4H,5H,6H,7H-pyrazolo[3,4-b]pyridin-6-one] | 10 to 100 nM
O=C1CC(c2ccc(COc3ccccc3C(F)(F)F)c(OC(F)(F)F)c2)c2c[nH]nc2N1 (centres unmarked) [Example 108, 4-[3-(trifluoromethoxy)-4-{[2-(trifluoromethyl)phenoxy]methyl}phenyl]-2H,4H,5H,6H,7H-pyrazolo[3,4-b]pyridin-6-one] | 10 to 100 nM
COc1ccccc1COc1ccc(-c2cc(=O)[nH]c3n[nH]cc23)cc1OC [Example 171, 4-{3-methoxy-4-[(2-methoxyphenyl)methoxy]phenyl}-2H,6H, 7H-pyrazolo[3,4-b]pyridin-6-one] | 10 to 100 nM
COc1cc(C2CC(=O)Nc3c[nH]nc32)ccc1OCc1ccc(N)cc1C(F)(F)F (centres unmarked) [Example 137, 7-(4-{[4-amino-2-(trifluoromethyl)phenyl]methoxy}-3-methoxyphenyl)-2H,4H,5H,6H, 7H-pyrazolo[4,3-b]pyridin-5-one] | 100 to 1000 nM
O=C1CC(c2ccc(OCc3ccccc3C(F)(F)F)c([N+](=O)[O-])c2)c2c[nH]nc2N1 (centres unmarked) [Example 67, 4-(3-nitro-4-{[2-(trifluoromethyl)phenyl]methoxy}phenyl)-2H,4H,5H,6H,7H-pyrazolo[3,4-b]pyridin-6-one] | 100 to 1000 nM
O=C1CC(c2ccc(COc3ccc(F)cc3C(F)(F)F)c(OC(F)(F)F)c2)c2c[nH]nc2N1 (centres unmarked) [Example 110, 4-(4-{[4-fluoro-2-(trifluoromethyl)phenoxy]methyl}-3-(trifluoromethoxy)phenyl)-2H,4H,5H,6H, 7H-pyrazolo[3,4-b]pyridin-6-one] | 100 to 1000 nM
COc1cc(C2CC(=O)Nc3n[nH]cc32)ccc1COc1ccc(C(F)(F)F)cc1C(F)F (single isomer, unassigned; (-)) [Example 216, (−)-4-(4-{[2-(difluoromethyl)-4-(trifluoromethyl)phenoxy]methyl}-3-methoxyphenyl)-2H,4H,5H,6H,7H-pyrazolo[3,4-b]pyridin-6-one] | 10 to 100 nM
COc1cc(C2CC(=O)Nc3n[nH]cc32)ccc1COc1cc(C(F)F)cc(C(F)(F)F)c1 (centres unmarked) [Example 118, 4-(4-{[3-(difluoromethyl)-5-(trifluoromethyl)phenoxy]methyl}-3-methoxyphenyl)-2H,4H,5H,6H,7H-pyrazolo[3,4-b]pyridin-6-one] | 100 to 1000 nM
O=C1CC(c2ccc(OCc3ccccc3C(F)(F)F)cc2F)c2c[nH]nc2N1 (centres unmarked) [Example 66, 4-(2-fluoro-4-{[2-(trifluoromethyl)phenyl]methoxy}phenyl)-2H,4H,5H,6H, 7H-pyrazolo[3,4-b]pyridin-6-one] | 100 to 1000 nM
